Source: patent publication US4877881A, “Process of preparing pyrazoles, isoxazoles and analogs thereof having activity as 5-lipoxygenase inhibitors” (Warner-Lambert Company, priority 1988, dated 1989)

Experiments:
5-lipoxygenase = target: T1, 5-lipoxygenase (Rattus norvegicus, UniProt P12527); experiment: ARBL Whole Cell 5-Lipoxygenase Assay in RBL-1 cells (LTB4 RIA); assay type: cell-based; conditions: RBL-1 intact cell 5-lipoxygenase; A23187 5 μM
T1 construct: ARBL/ARBC Whole Cell 5-Lipoxygenase and Cyclooxygenase Assays; endogenous in cells; host or cells: RBL-1 rat basophilic leukemia cells (American Type Culture Collection)
T1 sequence (P12527 1-673): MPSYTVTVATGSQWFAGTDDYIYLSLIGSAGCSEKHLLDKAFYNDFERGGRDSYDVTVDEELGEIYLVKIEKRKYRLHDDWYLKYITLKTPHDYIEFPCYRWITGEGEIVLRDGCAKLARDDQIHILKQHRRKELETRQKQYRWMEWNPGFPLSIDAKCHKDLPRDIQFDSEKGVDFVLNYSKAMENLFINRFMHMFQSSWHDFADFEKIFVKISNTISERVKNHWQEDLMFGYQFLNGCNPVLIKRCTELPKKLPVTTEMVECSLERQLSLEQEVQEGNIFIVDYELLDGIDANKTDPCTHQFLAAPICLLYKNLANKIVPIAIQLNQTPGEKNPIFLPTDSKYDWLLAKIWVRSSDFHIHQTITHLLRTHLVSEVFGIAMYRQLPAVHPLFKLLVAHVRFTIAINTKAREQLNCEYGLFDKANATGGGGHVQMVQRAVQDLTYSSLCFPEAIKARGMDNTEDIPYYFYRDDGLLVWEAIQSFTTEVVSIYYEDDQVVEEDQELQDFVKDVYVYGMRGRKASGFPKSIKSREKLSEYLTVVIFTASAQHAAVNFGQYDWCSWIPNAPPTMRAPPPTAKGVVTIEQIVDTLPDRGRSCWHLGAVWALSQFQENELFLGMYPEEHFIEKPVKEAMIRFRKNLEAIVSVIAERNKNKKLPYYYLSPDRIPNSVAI
Procedure: (§1) ARBL/ARBC Whole Cell 5-Lipoxygenase and Cyclooxygenase Assays
(§2) The rat basophilic leukemia cell line (RBL-1) was obtained from the American Type Culture Collection (Rockville, Md.).
(§3) Radioimmuno assay (RIA) kits of LTB4 and PGF2α were obtained from Amersham (Arlington Heights, Ill.) and Seragen (Boston, Mass.) respectively.
(§4) All tissue culture media were obtained from GIBO (Gran Island, N.Y.).
(§5) RBL-1 cells were grown in culture (suspension) in Eagle's minimum essential medium supplemented with 12% fetal bovine serum and 1:100 antibiotic-antimycotic mixture at 37° C. in an incubator supplied with air-5% carbon dioxide. Cells were harvested by centrifugation. They were washed with cold phosphate buffered saline pH 7.4 (PBS; NaCl, 7.1 g; Na2 HOP4, 1.15 g; KH2 PO4, 0.2 g; and KCl, 0.2 g/L). […] Calcium ionophore A23187 (5 μM) was added and cells were incubated for seven minutes at 37° C. The reaction was stopped by chilling the tubes in ice for ten minutes. Cells were separated by centrifugation and the supernatant was stored at -20°. Aliquots (100 μl) were analyzed for LTB4 and PGF2α using radioimmuno assay kits as provided by the supplier.

cyclooxygenase = target: T2, cyclooxygenase (Rattus norvegicus, UniProt Q63921); experiment: ARBC Whole Cell Cyclooxygenase Assay in RBL-1 cells (PGF2α RIA); assay type: cell-based; conditions: RBL-1 intact cell cyclooxygenase; A23187 5 μM
T2 construct: RBL-1 intact cell cyclooxygenase IC50 values; endogenous in cells; host or cells: RBL-1 rat basophilic leukemia cells (American Type Culture Collection)
T2 sequence (Q63921 27-602): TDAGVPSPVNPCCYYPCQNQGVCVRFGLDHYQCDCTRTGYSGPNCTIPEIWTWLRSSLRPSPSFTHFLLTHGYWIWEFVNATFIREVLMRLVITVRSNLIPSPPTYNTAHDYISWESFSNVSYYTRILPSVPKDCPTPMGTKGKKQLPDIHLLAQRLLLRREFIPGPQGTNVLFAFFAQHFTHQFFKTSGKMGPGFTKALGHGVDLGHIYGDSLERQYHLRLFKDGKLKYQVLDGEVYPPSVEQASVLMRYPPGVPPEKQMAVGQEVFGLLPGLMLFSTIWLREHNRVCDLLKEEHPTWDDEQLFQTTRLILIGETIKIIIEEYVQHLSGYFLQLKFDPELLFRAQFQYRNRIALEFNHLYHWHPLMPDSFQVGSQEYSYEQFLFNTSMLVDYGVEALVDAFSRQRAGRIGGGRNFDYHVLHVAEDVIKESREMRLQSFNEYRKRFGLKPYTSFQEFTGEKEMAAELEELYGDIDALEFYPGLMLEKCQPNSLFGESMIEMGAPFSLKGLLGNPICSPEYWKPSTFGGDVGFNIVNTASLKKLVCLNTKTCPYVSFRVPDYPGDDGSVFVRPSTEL
Procedure: as §1, §2, §3, §4, §5

IC50 (5-lipoxygenase) [µM]	IC50 (cyclooxygenase) [µM]	SMILES
17	2.2	COC(=O)C(=Cc1cc(C)c(O)c(C)c1)c1cc(C)no1 [Example 43, 5-[α-Carbomethoxy-β-(4'-hydroxy-3',5'-dimethylphenyl)ethenyl]-3-methylisoxazole]
12	> 30	Cc1cc(C=Cc2cc(C(C)(C)C)c(O)c(C(C)(C)C)c2)n(CC(=O)O)n1 [Example 10P, 5-[β-(4'-Hydroxy-3',5'-di-t-butylphenyl)ethenyl]-3-methyl-1H-pyrazole-1-acetic acid]
> 30	12	COC(=O)C(=Cc1cc(Br)c(O)c(OC)c1)c1cc(C)no1 [Example 46A, 5-[α-Carbomethoxy-β-(3'-methoxy-4'-hydroxy-5'-bromophenyl)ethenyl]-3-methylisoxazole]
4.1	> 30	COC(=O)Cn1nc(C)cc1C=Cc1cc(C(C)(C)C)c(O)c(C(C)(C)C)c1 [Example 10G-2, 5-[β-(4'-hydroxy-3',5'-di-t-butylphenyl)ethenyl]-3-methyl-1H-pyrazole-1-acetic acid, methyl ester]
> 30	5	COC(=O)C(=Cc1cc(Cl)c(O)c(Cl)c1)c1cc(C)no1 [Example 41, 5-[α-Carbomethoxy-β-(4'-hydroxy-3,5-dichlorophenyl)ethenyl]-3-methylisoxazole]
< 1	5.4	COc1cc(C=Cc2cc(-c3ccccc3)no2)cc(OC)c1O [Example 32D, 5-[β(4'-Hydroxy-3',5'-dimethoxyphenyl)ethenyl]-3-phenylisoxazole]
> 20		COc1cc(C=Cc2cc(C)nn2CC(=O)O)ccc1O [Example 10L, 5-[β-(4'-Hydroxy-3'-methoxyphenyl)ethenyl]-3-methyl-1H-pyrazole-1-acetic acid]
> 20	> 30	COc1cc(C=Cc2cc(C)n(CC(=O)O)n2)cc(OC)c1O [Example 10N, 3-[β-(4'-hydroxy-3',5'-dimethoxyphenyl)ethenyl]-5-methyl-1H-pyrazole-1-acetic acid]
12	30	COc1cccc(C=Cc2cc(C)no2)c1O [Example 32F, 5-[β-(2'-Hydroxy-3'-methoxyphenyl)ethenyl]-3-methylisoxazole]
> 10	> 25	COC(=O)Cn1nc(C)cc1C=Cc1ccc(O)c(OC)c1 [Example 10I, 5-[β-(4'-Hydroxy-3'-methoxyphenyl)ethenyl]-3-methyl-1H-pyrazole-1-acetic acid methyl ester]
0.3	> 30	CCOC(=O)Cn1nc(C)cc1/C=C/c1cc(OC)c(O)c(OC)c1 [Example 10D, (E)-5-[β-(4'-Hydroxy-3',5'-dimethoxyphenyl)ethenyl]3-methyl-1H-pyrazole-1-acetic acid, ethyl ester]
4.5	2.8	COc1cc(C=Cc2cc(-c3ccccc3)no2)ccc1O [Example 32E, 5-[β-(4'-Hydroxy-3'-methoxyphenyl)ethenyl]-3-phenyl-isoxazole]
> 20		COc1cc(C=Cc2cc(C)n(CC(=O)O)n2)ccc1O [Example 10K, 3-[β-(4'-Hydroxy-3'-methoxyphenyl)ethenyl]-5-methyl-1H-pyrazole-1-acetic acid]
20	2.5	Cc1cc(C(=Cc2cc(C(C)(C)C)c(O)c(C(C)(C)C)c2)C(=O)O)on1 [Example 51, 5-[α-Carboxy-β-(4'-hydroxy-3',5'-bis(1,1-dimethylethyl)phenyl)ethenyl]-3-methylisoxazole]
> 30	> 30	Cc1cc(C=Cc2cc(C(C)(C)C)c(O)c(C(C)(C)C)c2)nn1CC(=O)O [Example 10Q, 3-[β-(4'-Hydroxy-3',5'-di-t-butylphenyl)ethenyl]-5-methyl-1H-pyrazole-1-acetic acid]
9.5	> 30	COC(=O)Cn1nc(C=Cc2cc(OC)c(O)c(OC)c2)cc1C [Example 10H, 3-[β-(4'-Hydroxy-3',5'-dimethoxyphenyl)ethenyl]-5-methyl-1H-pyrazole-1-acetic acid, methyl ester]
3.8	4.5	COc1cc(C=Cc2cc(C(F)(F)F)[nH]n2)ccc1O [Example 10A, 3-[β-(4'-Hydroxy-3'-methoxyphenyl)ethenyl]-5-trifluoromethylpyrazole]
21.5		COc1cc(C=Cc2cc(CCO)on2)ccc1O [Example 36A, 3-[β-(4'-Hydroxy-3'-methoxyphenyl)ethenyl]-5-(2'-hydroxyethyl)isoxazole]
4.7	> 30	Cc1cc(C=Cc2cc(Cl)cc(Cl)c2O)on1 [Example 32J, 5-[β-(2'-Hydroxy-3',5'-dichlorophenyl)ethenyl]-3-methylisoxazole]
> 10	> 25	COC(=O)C(=Cc1cc(OC)c(O)c(OC)c1)c1cc(C)no1 [Example 40, 5-[β-Carbomethoxy-β-(4'-hydroxy-3',5'-dimethoxyphenyl)ethenyl]-3-methylisoxazole]
> 30	> 30	COc1cc(C=Cc2cc(C)nn2CC(=O)O)cc(OC)c1O [Example 10M, 5-[β-(4'-Hydroxy-3',5'-dimethoxyphenyl)ethenyl]-3-methyl-1H-pyrazole-1-acetic acid]
12	5.2	COC(=O)C(=Cc1cc(Br)c(O)c(Br)c1)c1cc(C)no1 [Example 44, 5-[α-Carbomethoxy-β-(4'-hydroxy-3',5'-dibromophenyl)ethenyl]-3-methylisoxazole]
> 20	> 20	Cc1cc(C(=Cc2cc(C)c(O)c(C)c2)C(=O)O)on1 [Example 52, 5-[α-Carboxy-β-(4'-hydroxy-3',5'-dimethylphenyl)ethenyl]-3-methylisoxazole]
> 10	30	COC(=O)Cn1nc(C=Cc2ccc(O)c(OC)c2)cc1C [Example 10J, 3-[β-(4'-Hydroxy-3'-methoxyphenyl)ethenyl]-5-methyl-1H-pyrazole-1-acetic acid, methyl ester]
4.5	> 30	COC(=O)Cn1nc(C=Cc2cc(C(C)(C)C)c(O)c(C(C)(C)C)c2)cc1C [Example 10G-1, 3-[β-(4'-Hydroxy-3',5'-di-t-butylphenyl)ethenyl]-5-methyl-1H-pyrazole-1-acetic acid, methyl ester]

SMILES	IC50 (5-lipoxygenase) [µM]	IC50 (cyclooxygenase) [µM]
COc1cc(C=Cc2cc(C)[nH]n2)ccc1OC(C)=O [Example 37, 3-[β-(4'-Acetoxy-3'-methoxyphenyl)ethenyl]-5-methylpyrazole]	3.5	
